In ChEMBL document CHEMBL2440076, “New triarylpyrazoles as broad-spectrum anticancer agents: design, synthesis, and biological evaluation” (Eur J Med Chem, 2013):

Legend:
Assay type in all cases: functional
SNB-19 [1] = assay: Growth inhibition of human SNB19 cells assessed as cell growth at 10^-7 M after 48 hrs by sulforhodamine B assay; conditions: SNB-19, 48 h, read-out: Activity
HT-29 = assay: Growth inhibition of human HT-29 cells assessed as cell growth at 10^-7 M after 48 hrs by sulforhodamine B assay; conditions: HT-29, 48 h, read-out: Activity
MOLT-4 = assay: Growth inhibition of human MOLT4 cells assessed as cell growth at 10^-7 M after 48 hrs by sulforhodamine B assay; conditions: MOLT-4, 48 h, read-out: Activity
CCRF-CEM = assay: Growth inhibition of human CCRF-CEM cells assessed as cell growth at 10^-7 M after 48 hrs by sulforhodamine B assay; conditions: read-out: Activity
PC-3 = assay: Growth inhibition of human PC3 cells assessed as cell growth at 10^-4 M after 48 hrs by sulforhodamine B assay; conditions: PC-3, 48 h, read-out: Activity
SN12C = assay: Growth inhibition of human SN12C cells assessed as cell growth at 10^-4 M after 48 hrs by sulforhodamine B assay; conditions: read-out: Activity
MCF7 = assay: Growth inhibition of human MCF7 cells assessed as cell growth at 10^-8 M after 48 hrs by sulforhodamine B assay; conditions: MCF7, 48 h, read-out: Activity
786-0 = assay: Growth inhibition of human 786-0 cells assessed as cell growth at 10^-4 M after 48 hrs by sulforhodamine B assay; conditions: 786-0, 48 h, read-out: Activity
OVCAR-4 = assay: Growth inhibition of human OVCAR4 cells assessed as cell growth […] after 48 hrs by sulforhodamine B assay; conditions: OVCAR-4, 48 h, read-out: Activity
SK-MEL-2 = assay: Growth inhibition of human SK-MEL-2 cells assessed as cell growth at 10^-4 M after 48 hrs by sulforhodamine B assay; conditions: SK-MEL-2, 48 h, read-out: Activity
SNB-19 [2] = assay: Growth inhibition of human SNB19 cells assessed as cell growth at 10^-4 M after 48 hrs by sulforhodamine B assay; conditions: SNB-19, 48 h, read-out: Activity
SW-620 [3] = assay: Growth inhibition of human SW620 cells assessed as cell growth at 10^-4 M after 48 hrs by sulforhodamine B assay; conditions: SW-620, 48 h, read-out: Activity
OVCAR-3 = assay: Growth inhibition of human OVCAR3 cells assessed as cell growth at 10^-8 M after 48 hrs by sulforhodamine B assay; conditions: OVCAR-3, 48 h, read-out: Activity
M14 = assay: Growth inhibition of human M14 cells assessed as cell growth at 10^-8 M after 48 hrs by sulforhodamine B assay; conditions: M14, 48 h, read-out: Activity
SF-539 = assay: Growth inhibition of human SF539 cells assessed as cell growth at 10^-8 M after 48 hrs by sulforhodamine B assay; conditions: SF-539, 48 h, read-out: Activity
SF-268 = assay: Growth inhibition of human SF268 cells assessed as cell growth at 10^-8 M after 48 hrs by sulforhodamine B assay; conditions: SF-268, 48 h, read-out: Activity
SW-620 [4] = assay: Growth inhibition of human SW620 cells assessed as cell growth at 10^-8 M after 48 hrs by sulforhodamine B assay; conditions: SW-620, 48 h, read-out: Activity
SR = assay: Growth inhibition of human SR cells assessed as cell growth at 10^-8 M after 48 hrs by sulforhodamine B assay; conditions: read-out: Activity
K562 = assay: Growth inhibition of human K562 cells assessed as cell growth at 10^-8 M after 48 hrs by sulforhodamine B assay; conditions: K562, 48 h, read-out: Activity
NCI-H226 = assay: Growth inhibition of human NCI-H226 cells assessed as cell growth at 10^-4 M after 48 hrs by sulforhodamine B assay; conditions: NCI-H226, 48 h, read-out: Activity
RPMI-8226 [5] = assay: Growth inhibition of human RPMI8226 cells assessed as cell growth at 10^-4 M after 48 hrs by sulforhodamine B assay; conditions: RPMI-8226, 48 h, read-out: Activity
CAKI-1 = assay: Growth inhibition of human CAKI-1 cells assessed as cell growth at 10^-5 M after 48 hrs by sulforhodamine B assay; conditions: CAKI-1, 48 h, read-out: Activity
[6] = Growth inhibition of human NCI-ADR-RES cells assessed as cell growth at 10^-5 M after 48 hrs by sulforhodamine B assay; conditions: read-out: Activity
OVCAR-5 [7] = assay: Growth inhibition of human OVCAR5 cells assessed as cell growth at 10^-5 M after 48 hrs by sulforhodamine B assay; conditions: OVCAR-5, 48 h, read-out: Activity
U-251 = assay: Growth inhibition of human U251 cells assessed as cell growth at 10^-5 M after 48 hrs by sulforhodamine B assay; conditions: U-251, 48 h, read-out: Activity
SNB-19 [8] = assay: Growth inhibition of human SNB19 cells assessed as cell growth at 10^-5 M after 48 hrs by sulforhodamine B assay; conditions: SNB-19, 48 h, read-out: Activity
A549 = assay: Growth inhibition of human A549/ATCC cells assessed as cell growth at 10^-5 M after 48 hrs by sulforhodamine B assay; conditions: A549, 48 h, read-out: Activity
T47D = assay: Growth inhibition of human T47D cells assessed as cell growth at 10^-6 M after 48 hrs by sulforhodamine B assay; conditions: read-out: Activity
[9] = Growth inhibition of human Hs 578T cells assessed as cell growth at 10^-6 M after 48 hrs by sulforhodamine B assay; conditions: read-out: Activity
A498 = assay: Growth inhibition of human A498 cells assessed as cell growth at 10^-6 M after 48 hrs by sulforhodamine B assay; conditions: A498, 48 h, read-out: Activity
OVCAR-8 = assay: Growth inhibition of human OVCAR8 cells assessed as cell growth at 10^-6 M after 48 hrs by sulforhodamine B assay; conditions: OVCAR-8, 48 h, read-out: Activity
HCT-116 = assay: Growth inhibition of human HCT116 cells assessed as cell growth at 10^-6 M after 48 hrs by sulforhodamine B assay; conditions: HCT-116, 48 h, read-out: Activity
[10] = Growth inhibition of human HCC2998 cells assessed as cell growth at 10^-6 M after 48 hrs by sulforhodamine B assay; conditions: HCC 2998, 48 h, read-out: Activity
COLO 205 = assay: Growth inhibition of human COLO205 cells assessed as cell growth at 10^-6 M after 48 hrs by sulforhodamine B assay; conditions: COLO 205, 48 h, read-out: Activity
NCI-H322M = assay: Growth inhibition of human NCI-H322M cells assessed as cell growth at 10^-6 M after 48 hrs by sulforhodamine B assay; conditions: read-out: Activity
RPMI-8226 [11] = assay: Growth inhibition of human RPMI8226 cells assessed as cell growth at 10^-6 M after 48 hrs by sulforhodamine B assay; conditions: RPMI-8226, 48 h, read-out: Activity
[12] = Growth inhibition of human Hs 578T cells assessed as cell growth at 10^-7 M after 48 hrs by sulforhodamine B assay; conditions: read-out: Activity
OVCAR-5 [13] = assay: Growth inhibition of human OVCAR5 cells assessed as cell growth at 10^-7 M after 48 hrs by sulforhodamine B assay; conditions: OVCAR-5, 48 h, read-out: Activity

COc1cc(-c2nn(-c3cccc(NC(=O)c4ccc(N5CCOCC5)c(C(F)(F)F)c4)c3)cc2-c2ccncc2)ccc1Cl
growth at 0.1 µM (SNB-19 [1]): 81% | growth at 0.1 µM (HT-29): 106% | growth at 0.1 µM (MOLT-4): 105% | growth at 0.1 µM (CCRF-CEM): 73% | growth at 100 µM (PC-3): -5% | growth at 100 µM (SN12C): 11% | growth at 0.01 µM (MCF7): 87% | growth at 100 µM (786-0): 3% | growth at 100 µM (OVCAR-4): 18% | growth at 100 µM (SK-MEL-2): -34% | growth at 100 µM (SNB-19 [2]): 15% | growth at 100 µM (SW-620 [3]): 10% | growth at 0.01 µM (OVCAR-3): 110% | growth at 0.01 µM (M14): 98% | growth at 0.01 µM (SF-539): 93% | growth at 0.01 µM (SF-268): 97% | growth at 0.01 µM (SW-620 [4]): 99% | growth at 0.01 µM (SR): 91% | growth at 0.01 µM (K562): 99% | growth at 100 µM (NCI-H226): 16% | growth at 100 µM (RPMI-8226 [5]): 6% | growth at 10 µM (CAKI-1): -2% | growth at 10 µM [6]: 2% | growth at 10 µM (OVCAR-5 [7]): 16% | growth at 10 µM (U-251): -17% | growth at 10 µM (SNB-19 [8]): 22% | growth at 10 µM (A549): 7% | growth at 1 µM (T47D): 42% | growth at 1 µM [9]: 6% | growth at 1 µM (A498): 1% | growth at 1 µM (OVCAR-8): 30% | growth at 1 µM (HCT-116): 33% | growth at 1 µM [10]: 52% | growth at 1 µM (COLO 205): 5% | growth at 1 µM (NCI-H322M): 36% | growth at 1 µM (RPMI-8226 [11]): 16% | growth at 0.1 µM [12]: 81% | growth at 0.1 µM (OVCAR-5 [13]): 93%

COc1cc(-c2nn(-c3cccc(NC(=O)c4ccccc4)c3)cc2-c2ccncc2)ccc1Cl
growth at 0.1 µM (SNB-19 [1]): 97% | growth at 0.1 µM (HT-29): 98% | growth at 0.1 µM (MOLT-4): 99% | growth at 0.1 µM (CCRF-CEM): 101% | growth at 100 µM (PC-3): 3% | growth at 100 µM (SN12C): 36% | growth at 0.01 µM (MCF7): 92% | growth at 100 µM (786-0): 18% | growth at 100 µM (OVCAR-4): 30% | growth at 100 µM (SK-MEL-2): -30% | growth at 100 µM (SNB-19 [2]): 13% | growth at 100 µM (SW-620 [3]): 14% | growth at 0.01 µM (OVCAR-3): 103% | growth at 0.01 µM (M14): 95% | growth at 0.01 µM (SF-539): 91% | growth at 0.01 µM (SF-268): 95% | growth at 0.01 µM (SW-620 [4]): 96% | growth at 0.01 µM (SR): 94% | growth at 0.01 µM (K562): 102% | growth at 100 µM (NCI-H226): 24% | growth at 100 µM (RPMI-8226 [5]): 21% | growth at 10 µM (CAKI-1): 14% | growth at 10 µM [6]: 5% | growth at 10 µM (OVCAR-5 [7]): 59% | growth at 10 µM (U-251): 17% | growth at 10 µM (SNB-19 [8]): 30% | growth at 10 µM (A549): 17% | growth at 1 µM (T47D): 58% | growth at 1 µM [9]: 52% | growth at 1 µM (A498): 19% | growth at 1 µM (OVCAR-8): 50% | growth at 1 µM (HCT-116): 31% | growth at 1 µM [10]: 75% | growth at 1 µM (COLO 205): 32% | growth at 1 µM (NCI-H322M): 78% | growth at 1 µM (RPMI-8226 [11]): 46% | growth at 0.1 µM [12]: 97% | growth at 0.1 µM (OVCAR-5 [13]): 93%
